Experimental data published in patent publication US12344598B2, “Bis(diazirine) derivatives as photo-crosslinker for treating corneal ectatic disorders” (Avedro, Inc., priority 2019, dated 2025).
Marks after values point to notes of the source that are not given here.

How the values were obtained:
cornea [1] = experiment: Porcine Eye Corneal Flattening Assay; details: overall change in keratometry (Km) of central 3 mm zone; UVA 4 mm circle, 365 nm, 30 mW/cm^2, CW, 8.1 min, 15 J total dose, normal (21% O2) atmosphere, 37.0° C.
Protocol: Porcine whole globes in saline at 4° C. were warmed to room temperature. The corneas were then de-epithelialized with a dulled scalpel blade and the eyes placed into custom movable eye holders in a horizontal position with the cornea facing upward. The eye holders were then positioned inside an enclosed chamber that allows for the control of atmosphere, temperature and humidity (typically a water bath at 37.0° C.). IOP is maintained at a constant pressure by the insertion of a blood bank buffered saline line from an IV bag at a standard height inserted into each eye via a syringe needle. 5% Dextran T500 in blood bank buffered saline is dropped onto the surface of the cornea of each eye every 90 sec for 2 hours to allow the eyes to stabilize. […] The test eye is then orientated in a vertical position and the pre-treatment surface keratometry of the cornea measured using a Pentacam® HR device fine cornea 100 scan. […] After a further 1.5 hours during which the 5% dextran drops are resumed the eye is orientated back to the vertical position and the post-treatment surface keratometry of the cornea measured using a Pentacam® HR device fine cornea 100 scan as before. The difference map between the pre and post treatment corneal images is obtained and the overall change in keratometry (Km) of the central 3 mm zone recorded as a change in diopters. […]

cornea [2] = experiment: Porcine Eye Corneal Stiffening Assay; details: UVA 9 mm circle, 365 nm, 30 mW/cm^2, CW, 8.1 min, 15 J, 21% O2, 37.0° C., untreated cornea = 10.1
Protocol: Porcine whole globes in saline at 4° C. were warmed to room temperature. The eyes were either immediately placed into custom movable eye holders in a horizontal position with the cornea facing upward or were first de-epithelialized with a dulled scalpel blade before being placed in the holder. The eye holders were then positioned inside an enclosed chamber that allows for the control of atmosphere, temperature and humidity (typically a water bath at 37.0° C.). A solution of test compound held in place by a small rubber O-ring on the center of the cornea is then allowed to soak into the cornea surface of the test eye. After a set soaking time (typically 10 minutes) the O-ring is removed and any excess test solution washed away with saline. A specific pattern of UVA light at 365 nm is administered to the test eye cornea over a desired dosing period. A corneal flap of desired thickness (typically 200 μm is then excised from the eyes using a femtosecond laser (Zeimer, LDV1). The corneal flap is placed in saline at ambient temperature for 20 minutes and then mounted onto a biaxial extensiometer (CellScale Biotester5000, Waterloo, ON), using biorake attachments (5 tines spanning a width of 3.5 mm). The corneal flap is stretched at a constant rate of 4 μm/s in saline at 37° C. until sample failure. The maximum slope of the force vs distance curve is calculated and compared to that obtained from an untreated cornea.
The following notes provide further clarification regarding certain steps in the assay: • (1) A solution of the test compound (typically 0.22% w/v in saline) is held in place by a small rubber O-ring on the center of the cornea is then allowed to soak into the cornea surface of the test eye. After a set soaking time of 5-30 minutes (typically 10 minutes) the O-ring is removed and any excess test solution washed away with saline. • (2) A corneal flap of desired thickness and diameter (typically 200 μm thick by 8 mm diameter) is then excised from the eyes using a femtosecond laser (Zeimer, LDV1). The corneal flap is either placed in saline at ambient temperature for 20 minutes and then mounted in saline onto a biaxial extensiometer (CellScale Biotester5000, Waterloo, ON) or mounted directly onto the tester in 5% Dextran T500/saline. • (3) Biorake attachments (5 tines spanning a width of 3.5 mm) are used to hold the flap as it is stretched at 37° C. and a constant rate of 4 μm/s in both X (5 N load cell) and Y (10 N load cell) directions simultaneously. • (4) The maximum slope of the force vs distance curve corresponds to the stiffening value. It is compared to that obtained from an untreated cornea.

[3] = maximum slope of force vs distance curve of corneal flap
[4] = eyes were not de-epithelialized prior to treatment

## CC1(CCNCC(=O)NCCC2(C)N=N2)N=N1 [Example 1]
Cornea [1]
  Refractive Change (D): −0.32 D
Cornea [2]; [3]
  Max slope: 11.28

## CC1(CCNCCC(=O)N[C@@H](CC(=O)O)C(=O)OCCC2(C)N=N2)N=N1 [Example 6]
Cornea [2]; [4]
  Max slope: 10.88^#

## CC1(CCNCCC(=O)N[C@@H](CCCCNC(=N)N)C(=O)NCCC2(C)N=N2)N=N1 [Example 10]
Cornea [1]
  Refractive Change (D): −0.64 D
Cornea [2]; [4]
  Max slope: 10.14^#

## CC1(CCN(CCC2(C)N=N2)CC(=O)O)N=N1 [Example 13]
Cornea [2]; [3]
  Max slope: 12.38

## CC1(CCC(=O)N(CCC2(C)N=N2)CC(=O)O)N=N1 [Example 14]
Cornea [2]; [4]
  Max slope: 10.5
Cornea [2]; [3]
  Max slope: 10.66

## CC1(CCNCC(=O)N[C@@H](CC(=O)O)C(=O)NCCC2(C)N=N2)N=N1 [Example 17]
Cornea [2]; [3]
  Max slope: 10.13

## CC1(CCC(=O)N(CCC2(C)N=N2)[C@@H]2CCNC2)N=N1 [Example 23]
Cornea [2]; [4]
  Max slope: 10.68^#
